Active and inactive are the calls of the source. The calls are words filed in the database; no cut-off is given here.
Columns and labels:
[1] = target: T1, Neuronal acetylcholine receptor; alpha4/beta2 (Rattus norvegicus, UniProt P09483+P12390); test: Displacement of [3H]epibatidine from alpha4beta2 nAChR in rat cerebral cortex membrane; type: cell membranes
[2] = target: T2, Neuronal acetylcholine receptor; alpha3/beta4 (Homo sapiens, UniProt P30926+P32297); test: Displacement of [3H]epibatidine from human alpha3beta4 nAChR transfected in […] cell membrane; type: cell membranes
[3] = Selectivity index, ratio of Ki for human alpha3beta4 nAChR in […] cell membrane to Ki for alpha4beta2 nAChR in rat cerebral cortex membrane; type: cell-based
Rattus norvegicus = organism: Rattus norvegicus; test: Selectivity index, ratio of Ki for alpha7 nAChR in rat hippocampus membrane to Ki for alpha4beta2 nAChR in rat cerebral cortex membrane; type: cell membranes
[4] = target: Neuronal acetylcholine receptor subunit alpha-7 (Rattus norvegicus, UniProt Q05941); test: Displacement of [125I]alpha-bungarotoxin from alpha7nAChR in rat hippocampus membrane; type: cell membranes
[5] = target: T3, Neuronal acetylcholine receptor; alpha4/beta2 (Homo sapiens, UniProt P17787+P43681); test: Agonist activity at human alpha4beta2 nAChR expressed in GH4C1 cells assessed as increase in inward channel current measured after 3 to 4 days at -70 mV holding potential by patch clamp assay; type: cell-based
[6] = target: T2, Neuronal acetylcholine receptor; alpha3/beta4; test: Agonist activity at human alpha3beta4 nAChR expressed in GH4C1 cells assessed as inward channel current at 0.01 to 100 uM measured after 3 to 4 days at -70 mV holding potential by patch clamp assay; type: cell-based
[7] = target: T3, Neuronal acetylcholine receptor; alpha4/beta2; test: Agonist activity at human alpha4beta2 nAChR expressed in GH4C1 cells assessed as increase in inward channel current measured after 3 to 4 days at -70 mV holding potential by patch clamp assay relative to acetylcholine; type: cell-based
[8] = target: T2, Neuronal acetylcholine receptor; alpha3/beta4; test: Agonist activity at human alpha3beta4 nAChR expressed in GH4C1 cells assessed as increase in inward channel current at >1 uM measured after 3 to 4 days at -70 mV holding potential by patch clamp assay; type: cell-based
[9] = target: T2, Neuronal acetylcholine receptor; alpha3/beta4; test: Agonist activity at human alpha3beta4 nAChR expressed in GH4C1 cells assessed as increase in inward channel current measured after 3 to 4 days at -70 mV holding potential by patch clamp assay; type: cell-based
[10] = target: T1, Neuronal acetylcholine receptor; alpha4/beta2; test: Displacement of [3H]cytisine from alpha4beta2 nAChR in rat brain cerebral cortex membrane incubated for 75 mins by scintillation counting method; type: cell membranes

T1 sequence (P09483 whole entry): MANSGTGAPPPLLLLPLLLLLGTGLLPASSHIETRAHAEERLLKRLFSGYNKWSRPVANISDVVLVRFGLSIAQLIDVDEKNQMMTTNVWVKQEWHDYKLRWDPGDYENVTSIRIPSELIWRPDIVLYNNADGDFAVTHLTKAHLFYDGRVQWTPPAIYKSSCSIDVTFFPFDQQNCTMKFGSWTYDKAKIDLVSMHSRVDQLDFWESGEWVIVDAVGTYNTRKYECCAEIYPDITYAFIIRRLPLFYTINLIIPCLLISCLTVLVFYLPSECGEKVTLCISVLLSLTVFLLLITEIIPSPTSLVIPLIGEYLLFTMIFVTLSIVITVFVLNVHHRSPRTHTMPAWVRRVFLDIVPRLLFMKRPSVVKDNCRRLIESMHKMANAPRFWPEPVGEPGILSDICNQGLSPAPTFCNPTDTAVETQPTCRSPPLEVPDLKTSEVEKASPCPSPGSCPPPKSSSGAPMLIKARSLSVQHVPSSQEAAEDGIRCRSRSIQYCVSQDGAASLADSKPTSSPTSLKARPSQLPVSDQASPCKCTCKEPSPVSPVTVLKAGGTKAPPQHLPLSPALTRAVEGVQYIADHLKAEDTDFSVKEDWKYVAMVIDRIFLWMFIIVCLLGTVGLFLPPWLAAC
T1 sequence (P12390 whole entry): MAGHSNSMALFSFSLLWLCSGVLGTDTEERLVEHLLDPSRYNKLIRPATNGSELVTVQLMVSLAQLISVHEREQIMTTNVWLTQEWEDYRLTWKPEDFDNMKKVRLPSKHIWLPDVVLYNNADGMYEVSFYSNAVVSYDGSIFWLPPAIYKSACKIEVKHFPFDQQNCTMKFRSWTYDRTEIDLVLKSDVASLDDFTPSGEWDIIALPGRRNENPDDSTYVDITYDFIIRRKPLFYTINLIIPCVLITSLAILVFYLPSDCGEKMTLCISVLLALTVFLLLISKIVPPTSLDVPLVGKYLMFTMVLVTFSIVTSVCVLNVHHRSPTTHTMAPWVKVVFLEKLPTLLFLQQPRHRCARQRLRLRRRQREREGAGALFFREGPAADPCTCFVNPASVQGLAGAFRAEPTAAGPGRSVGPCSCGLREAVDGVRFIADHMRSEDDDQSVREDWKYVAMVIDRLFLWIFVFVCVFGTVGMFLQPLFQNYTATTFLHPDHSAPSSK
Chain of Neuronal acetylcholine receptor subunit alpha-7 (Q05941 whole entry): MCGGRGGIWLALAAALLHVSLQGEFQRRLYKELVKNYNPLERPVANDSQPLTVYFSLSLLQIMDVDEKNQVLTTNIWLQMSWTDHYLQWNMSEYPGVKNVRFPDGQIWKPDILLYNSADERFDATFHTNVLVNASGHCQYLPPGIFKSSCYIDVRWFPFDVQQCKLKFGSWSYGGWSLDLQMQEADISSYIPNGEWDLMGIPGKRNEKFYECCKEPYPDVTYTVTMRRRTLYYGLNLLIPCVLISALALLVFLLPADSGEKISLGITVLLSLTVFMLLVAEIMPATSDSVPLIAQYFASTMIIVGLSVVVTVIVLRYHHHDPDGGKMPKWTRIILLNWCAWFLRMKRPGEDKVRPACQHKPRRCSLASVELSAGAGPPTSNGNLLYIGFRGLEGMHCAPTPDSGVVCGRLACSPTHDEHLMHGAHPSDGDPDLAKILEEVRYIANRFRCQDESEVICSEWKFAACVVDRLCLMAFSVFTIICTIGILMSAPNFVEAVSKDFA
T3 sequence (P17787 whole entry): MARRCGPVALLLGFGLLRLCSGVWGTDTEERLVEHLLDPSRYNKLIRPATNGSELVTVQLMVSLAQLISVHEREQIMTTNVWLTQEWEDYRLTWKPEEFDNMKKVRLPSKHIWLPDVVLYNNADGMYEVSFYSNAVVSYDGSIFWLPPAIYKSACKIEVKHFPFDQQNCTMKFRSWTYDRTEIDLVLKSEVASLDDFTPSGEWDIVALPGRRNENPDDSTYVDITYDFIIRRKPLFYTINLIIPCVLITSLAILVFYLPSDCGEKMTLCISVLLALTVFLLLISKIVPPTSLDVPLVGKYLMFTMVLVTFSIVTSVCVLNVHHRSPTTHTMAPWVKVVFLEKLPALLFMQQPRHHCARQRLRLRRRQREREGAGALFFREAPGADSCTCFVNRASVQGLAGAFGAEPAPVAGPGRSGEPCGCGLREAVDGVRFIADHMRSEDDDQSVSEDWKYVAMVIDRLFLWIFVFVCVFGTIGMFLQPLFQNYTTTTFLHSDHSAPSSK
T3 sequence (P43681 whole entry): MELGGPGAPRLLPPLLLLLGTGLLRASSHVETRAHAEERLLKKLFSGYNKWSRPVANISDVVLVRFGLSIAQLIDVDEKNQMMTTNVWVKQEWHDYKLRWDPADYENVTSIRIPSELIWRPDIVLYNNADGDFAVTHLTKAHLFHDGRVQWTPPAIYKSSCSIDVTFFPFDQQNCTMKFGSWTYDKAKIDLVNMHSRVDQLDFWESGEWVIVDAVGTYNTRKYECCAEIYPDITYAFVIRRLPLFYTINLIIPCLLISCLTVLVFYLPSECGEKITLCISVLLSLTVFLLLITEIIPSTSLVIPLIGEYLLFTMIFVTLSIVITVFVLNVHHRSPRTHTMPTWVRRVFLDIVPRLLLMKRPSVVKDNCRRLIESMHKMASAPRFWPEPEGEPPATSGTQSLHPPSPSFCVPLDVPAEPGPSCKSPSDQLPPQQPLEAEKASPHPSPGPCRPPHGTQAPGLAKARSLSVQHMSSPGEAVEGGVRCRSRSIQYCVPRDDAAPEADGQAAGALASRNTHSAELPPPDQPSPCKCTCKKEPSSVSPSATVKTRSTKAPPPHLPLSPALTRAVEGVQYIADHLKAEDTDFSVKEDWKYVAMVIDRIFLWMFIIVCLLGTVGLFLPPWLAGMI
T2 sequence (P30926 whole entry): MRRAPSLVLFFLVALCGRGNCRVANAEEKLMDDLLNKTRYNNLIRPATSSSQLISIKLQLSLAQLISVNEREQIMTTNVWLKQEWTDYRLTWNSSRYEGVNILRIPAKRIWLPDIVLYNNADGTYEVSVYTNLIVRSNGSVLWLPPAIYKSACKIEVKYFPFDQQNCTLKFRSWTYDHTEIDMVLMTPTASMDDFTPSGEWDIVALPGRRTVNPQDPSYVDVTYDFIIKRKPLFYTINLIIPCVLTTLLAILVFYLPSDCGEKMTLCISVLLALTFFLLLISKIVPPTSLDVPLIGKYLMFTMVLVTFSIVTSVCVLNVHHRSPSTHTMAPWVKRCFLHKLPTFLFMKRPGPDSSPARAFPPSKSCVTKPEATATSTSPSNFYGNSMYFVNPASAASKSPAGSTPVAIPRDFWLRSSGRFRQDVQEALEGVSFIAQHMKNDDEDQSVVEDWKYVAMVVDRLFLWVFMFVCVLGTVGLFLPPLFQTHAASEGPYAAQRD
T2 sequence (P32297 whole entry): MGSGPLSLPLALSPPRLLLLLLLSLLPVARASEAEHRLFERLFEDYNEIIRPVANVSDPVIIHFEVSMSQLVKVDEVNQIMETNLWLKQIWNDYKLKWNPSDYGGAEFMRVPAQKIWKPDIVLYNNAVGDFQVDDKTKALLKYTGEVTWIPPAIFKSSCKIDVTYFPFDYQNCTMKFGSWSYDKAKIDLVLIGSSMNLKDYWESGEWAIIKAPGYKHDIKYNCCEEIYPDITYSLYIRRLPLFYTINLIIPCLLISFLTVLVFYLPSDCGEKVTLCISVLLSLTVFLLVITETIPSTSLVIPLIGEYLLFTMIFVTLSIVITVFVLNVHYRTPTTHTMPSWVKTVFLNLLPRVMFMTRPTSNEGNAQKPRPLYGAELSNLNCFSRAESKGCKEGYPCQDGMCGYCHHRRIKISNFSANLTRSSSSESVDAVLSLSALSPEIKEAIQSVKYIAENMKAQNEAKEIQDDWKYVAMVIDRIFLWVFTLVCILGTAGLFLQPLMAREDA

Compound | Ki [1] | Ki [2] | Ratio Ki [3] | Ratio Ki (Rattus norvegicus) | Ki [4] | EC50 [5] | Activity [6] | Imax [7] | Activity [8] | EC50 [9] | Ki [10]
O=C(Nc1ccc(Cl)cc1)c1cncc(N2CC3CC(C2)N3)c1 | 0.404 nM | 123 nM | 304 | 32200 | 13000 nM |  |  |  |  |  | 
CCc1cccc(NC(=O)c2cncc(N3CC4CC(C3)N4)c2)c1 | 1.3 nM | 306 nM | 235 | > 38500 | > 50000 nM |  |  |  |  |  | 
COc1ccc(NC(=O)c2cncc(N3CC4CC(C3)N4)c2)cc1OC | 0.828 nM | 516 nM | 623 | 2780 | 2300 nM |  |  |  |  |  | 
O=C(Nc1ccccc1)c1cncc(N2CC3CC(C2)N3)c1 | 1.1 nM | 192 nM | 174 | 2180 | 2400 nM |  |  |  |  |  | 
O=C(Nc1ccc2c(c1)OCO2)c1cncc(N2CC3CC(C2)N3)c1 | 0.106 nM | 113 nM | 1070 | 79200 | 8400 nM |  |  |  |  |  | 
COc1cc(NC(=O)c2cncc(N3CC4CC(C3)N4)c2)cc(OC)c1 | 0.985 nM | 2000 nM | 2030 | 43800 | 43100 nM |  |  |  |  |  | 
O=C(Nc1ccccc1F)c1cncc(N2CC3CC(C2)N3)c1 | 0.315 nM | 102 nM | 324 | 10800 | 3400 nM |  |  |  |  |  | 
O=C(NCc1ccccc1)c1cncc(N2CC3CC(C2)N3)c1 | 1.8 nM | 1600 nM | 889 | 594 | 1070 nM |  |  |  |  |  | 
O=C(Nc1ccc(F)cc1F)c1cncc(N2CC3CC(C2)N3)c1 | 0.051 nM | 50 nM | 980 | > 980000 | > 50000 nM |  |  |  |  |  | 
O=C(c1cncc(N2CC3CC(C2)N3)c1)N1CCc2ccccc2C1 | 0.031 nM | 21 nM | 677 | 32300 | 1000 nM |  |  |  |  |  | 
O=C(Nc1cccc(F)c1)c1cncc(N2CC3CC(C2)N3)c1 | 0.044 nM | 28 nM | 636 | 634000 | 27900 nM |  |  |  |  |  | 
O=C(Nc1cccc(Cl)c1)c1cncc(N2CC3CC(C2)N3)c1 | 0.042 nM | 59 nM | 1400 | 545000 | 22900 nM | 1000 nM | inactive | 37% |  |  | 
COc1cccc(NC(=O)c2cncc(N3CC4CC(C3)N4)c2)c1 | 0.56 nM | 265 nM | 473 | > 89300 | > 50000 nM | 600 nM |  | 38% | Active | > 10000 nM | 
Clc1ccc(N2CC3CCC(C2)N3)cn1 |  |  |  |  |  |  |  |  |  |  | 0.95 nM
O=C(c1cncc(N2CC3CC(C2)N3)c1)N1CCCc2ccccc21 | 0.196 nM | 62 nM | 316 | > 255000 | > 50000 nM |  |  |  |  |  | 
O=C(Nc1ccc(I)cc1)c1cncc(N2CC3CC(C2)N3)c1 | 0.366 nM | 103 nM | 281 | 63900 | 23400 nM |  |  |  |  |  | 
O=C(Nc1ccc(F)cc1)c1cncc(N2CC3CC(C2)N3)c1 | 0.01 nM | 81 nM | 8100 | 3.32e+06 | 33200 nM | 520 nM |  | 41% | Active | > 10000 nM | 

Source: ChEMBL document CHEMBL4359847, “Novel N-aryl nicotinamide derivatives: Taking stock on 3,6-diazabicyclo[3.1.1]heptanes as ligands for neuronal acetylcholine receptors” (Eur J Med Chem, 2019)
